Source: PMC10121968, “Fosgonimeton, a Novel Positive Modulator of the HGF/MET System, Promotes Neurotrophic and Procognitive Effects in Models of Dementia” (Neurotherapeutics, 2022)
Non-standard residues stand in square brackets, D forms with d. Residues, ends and D or L forms follow the SMILES beside them. *: point of attachment. Hexanoyl = CCCCCC(=O)*; Ahx = NCCCCCC(=O)O

Columns and labels:
ERK (Thr202/Tyr204) = assay: Phospho-ERK HTRF assay in HEK293 cells; assay type: cell-based, human; conditions: HEK293, subthreshold HGF 0.1 ng/mL + fosgo-AM 1 µM, vs HGF alone
Text: To determine phosphoactivation status of the intracellular signaling molecules ERK (Thr202/Tyr204) or AKT (Ser473), we used homogenous time-resolved fluorescence (HTRF) kits to assess phosphorylation status based on the energy transfer between donor and acceptor phospho-ERK (pERK) or phospho-AKT (pAKT) antibodies. HTRF kit processing for pERK (Phospho-ERK [Thr202/Tyr204] cellular Advanced kit, #64AERPEG, Cisbio, Codolet, France) and pAKT (Phospho-AKT [Ser473] cellular kit, #64AKSPEG, Cisbio, Codolet, France) were carried out per manufacturer instructions. In brief, HEK293 cells were grown at 37 °C, 5% CO2 in DMEM + 10% FBS until approximately 80% confluent. Cells were seeded in polystyrene-treated 96-well cell culture plates at approximately 50,000 cells/well and cultured overnight in 50 µL serum-free growth media. […] Fluorescence emission at 2 different wavelengths (665 nm and 620 nm) were measured on an Envision plate reader (PerkinElmer, Waltham, Massachusetts), and the HTRF ratio of the acceptor and donor emission signals for each well was calculated as follows: HTRF ratio = (665 nm/620 nm) × 10,000. […] Data were assessed for normality (Shapiro–Wilk) and homoscedasticity (Brown-Forsythe). Statistical significance was determined by one-way analysis of variance (ANOVA) with Tukey’s multiple comparison post-test. […]

[1] = system: rat scopolamine amnesia model; assay: Scopolamine Morris water maze study; assay type: in vivo; conditions: 1 mg/kg SC
Procedure: Animals were maintained in accordance with the National Institute of Health Guide for the Care and Use of Laboratory Animals. Rats (14-week-old male Sprague Dawley) from Simonsen laboratories (Gilroy, CA) were used in the scopolamine Morris water maze study. This study was performed at Washington State University and procedures were approved by the Washington State University Institutional Animal Care and Use Committee.
Animals were anesthetized with ketamine hydrochloride plus xylazine (70 mg/kg and 7 mg/kg intraperitoneally, respectively). An intracerebroventricular (ICV) guide cannula (PE-60; Clay Adams, Parsippany, NY) was stereotaxically positioned (model 900; David Kopf Instruments, Tujunga, CA) in the right hemisphere of the brain 1.0 mm posterior and 1.5 mm lateral to the bregma. The guide cannula measured 1.5 cm in length with a heat bulge at 2.5 mm from the beveled tip to control insertion depth. Once in position, the cannula was secured to the skull with screws and dental cement. Animals were housed individually and hand-gentled for 6 days of postsurgical recovery. Histologic verification of cannula placement was accomplished by ICV injection of 4 μL cresyl violet after completion of behavioral testing. Animals for which cannulas were improperly placed were removed from the study.
The Morris water maze consisted of a 183-cm diameter, 64-cm deep tank with a clear circular platform (16-cm diameter) placed 30 cm from the maze wall and submerged 1 cm below the surface of the 26.7 °C water. The maze was virtually divided into 4 equal quadrants with the platform centered in 1 quadrant. Eight visual cues were randomly placed on the maze wall and these cues remained consistent throughout the trials.
Animals received either fosgo-AM (1 mg/kg in DMSO) or volume-matched vehicle (DMSO) by subcutaneous (SC) injection 45 min before testing, followed by ICV injection of scopolamine hydrobromide (105 nmol in 4 μL artificial cerebrospinal fluid [aCSF] over a duration of 40 s) 20 min before testing. […]
Probe trials were conducted on day 9 to determine learning persistence. […] The percentage of trial time spent within the platform region, the number of times that the animal crossed into the platform region, and the average distance from the center of the platform region were recorded. The swimming patterns of the rats were recorded using video tracking software (MediaRecorder and EthoVision software, Noldus, VA, USA).
The daily escape latency (defined as the mean latency to find the platform each day) was calculated for each animal. […] Data collected during the probe trials were assessed for normality (Shapiro–Wilk) and homoscedasticity (Brown-Forsythe) and subsequently analyzed using one-way ANOVA with Bonferroni post hoc tests compared with scopolamine + vehicle controls. […]

[2] = probe trial day 9, vs scopolamine + vehicle

## CCCCCC(=O)N[C@@H](Cc1ccc(O)cc1)C(=O)N[C@H](C(=O)NCCCCCC(N)=O)[C@@H](C)CC [fosgo-AM] (Hexanoyl-Tyr-Ile-[Ahx]-NH2)
ERK (Thr202/Tyr204)
  pERK levels: significant increase
[1]; 8-day acquisition, scopolamine ICV
  escape latency: reduced escape latency over time
[1]; [2]
  frequency of entering the platform zone: significantly improved
  mean distance from the center of the platform: significantly improved
  percentage of time spent in the platform zone: significantly improved
